Peptide text beside a SMILES is read from it. * marks the point of attachment. βGlc = OC[C@H]1O[C@@H](*)[C@H](O)[C@@H](O)[C@@H]1O
Tests used:
[1] = tested on: Sprague Dawley rats; test: 28-day repeat-dose subcutaneous toxicology study (main and recovery) in Sprague Dawley rats; format: in vivo, rat
Method: Rats used in studies were inspected upon receipt for good health and were acclimated for 7 days at a minimum. Male and female rats were randomly selected for one of the four treatment groups upon receipt. Group 1 rats received vehicle control (0.9 % sodium chloride (saline) for injection, USP) subcutaneously for 28 days. Rats in groups 2–4 received PNA5 at 1, 5, or 40 mg/kg/day subcutaneously for 28 days (Table 1). Rats for all studies were dosed once daily for 28 consecutive days via subcutaneous bolus injection. The first day of dosing was based on day 1 body weights. Toxicokinetic study animals were dosed in the same fashion as for the main and recovery study animals.
Rats are observed at least twice daily (morning and afternoon) beginning upon arrival through termination/release for mortality. For the toxicology main study, 10 rats per sex were randomly assigned to groups 1–4. 5 rats per sex were assigned to groups 1 (control) and group 4 (PNA5 at 40 mg/kg/day) for the toxicology recovery study. The number of animals used for the toxicokinetic groups was calculated to meet a sufficient number of animals to provide samples for toxicokinetic analysis while minimizing the number of blood collections per animal.
After 28 treatments, animals that were a part of the main and toxicokinetic study were scheduled for euthanasia on day 29, during which the necropsy measures were collected for the main study animals. Rats that were a part of the recovery animal study started the recovery period on day 29 and were scheduled for euthanasia on day 57, during which the same necropsy measures were collected. Animals were euthanized for humane reasons or at study termination via carbon dioxide inhalation followed by exsanguination via the vena cava for necropsy. Main Study and Recovery animals were fasted overnight prior to the scheduled necropsy. Following the final blood collection, animals in the toxicokinetic studies were euthanized by inhalation of carbon dioxide but were not exsanguinated for necropsy.
The following parameters and end points were evaluated in this study: mortality, clinical observations, body weights, body weight gains, food consumption, ophthalmology, clinical pathology parameters (hematology, coagulation, clinical chemistry, and urinalysis), toxicokinetic parameters, organ weights, and macroscopic and microscopic examinations.
Animals were observed daily. On days with dosing, observations were made 10–30 min postdosing. During the dosing, observations included but were not limited to the following: Changes in skin on the whole animal and at the injection site, fur, eyes, mucous membrane, and respiratory functions.
A detailed clinical observation was performed 1 week prior to randomization, on the date of randomization, and then weekly during the study period, with the last observation on the day of the scheduled necropsy.
The injection site was shaved and marked for identification and evaluation during the study. The injection site was collected at necropsy.
Rats were weighed within 4 days of receipt, on the day of randomization, daily during the study, and on the day of the scheduled necropsies. Dogs were weighed one week prior to randomization (± 2 days), on the day of randomization, on Day 1 (prior to dosing), weekly (± 2 days) during the study period, on the day prior to the scheduled necropsies, and on the day of the scheduled necropsy.
Rats' food consumption was measured quantitatively once weekly beginning on Day 1 and persisting throughout the study. Dogs' food consumption was measured daily beginning on Day 1 and persisting throughout the study.
Ophthalmic examinations were conducted by a board-certified veterinary ophthalmologist using an indirect ophthalmoscope and slit lamp biomicroscope. Prior to examination, animals will be treated with a mydriatic agent. […]

[2] = tested on: Beagle dogs; test: 28-day repeat-dose subcutaneous toxicology study (main and recovery) in Beagle dogs
[3] = tested on: male Beagle dogs; test: Cardiovascular safety evaluation after a single subcutaneous dose in male Beagle dogs; format: in vivo, dog; details: single s.c. injection 1, 5 or 20 mg/kg
Method: PNA5 -related cardiovascular effects were evaluated in male Beagle dogs at dose levels of 1, 5, or 20 mg/kg. To evaluate the effects of PNA5 when administered subcutaneously on the cardiovascular system the following parameters were measured including clinical observations, heart rate, arterial blood pressure (systolic, diastolic, and mean), pulse pressure, body temperature, and ECG waveforms (from which ECG waveform morphologies and ECG intervals PR, QRS, QT, and heart rate corrected QT [QTc] were derived).

[4] = Stability of dosing formulations; format: physicochemical; details: solutions in 0.9 % sodium chloride, 0.1 mg/mL and 10 mg/mL
Method: The analyzed dosing formulations were within the protocol-specified range of target concentrations for solutions and were stable at 0.1 mg/mL and 10 mg/mL following 24 h of room temperature storage and following 9 days of refrigerated storage.
The analyzed dosing formulations contained 95.5–108.7 % of the test article, which was within the protocol-specified range of target concentrations for solutions (90–110 %), and were stable at 0.1 mg/mL and 10 mg/mL following 24 h of room temperature storage and following 9 days of refrigerated storage. The test article was not detected in the analyzed vehicle formulation that was administered to the control groups.

[5] = rats, 1, 5, 40 mg/kg/day s.c. for 28 days
[6] = rats, main study, day 29 necropsy
[7] = rats, recovery study, 40 mg/kg/day vs control
[8] = dogs, 1, 5, 20 mg/kg/day s.c. for 28 days
[9] = dogs, main study, day 29 necropsy

Which results are given for `CC[C@H](C)[C@H](NC(=O)[C@H](Cc1ccc(O)cc1)NC(=O)[C@@H](NC(=O)[C@H](CCCNC(=N)N)NC(=O)[C@@H](N)CC(=O)O)C(C)C)C(=O)N[C@@H](Cc1c[nH]cn1)C(=O)N[C@@H](CO[C@@H]1O[C@H](CO)[C@@H](O)[C@H](O)[C@H]1O)C(N)=O` [PNA5, Ang-1–6-Ser-O-Glu-NH2] (H-DRVYIHS(βGlc)-NH2)?
tolerability (mortality, adverse findings) ([1]; Sprague-Dawley rats, main and recovery studies, s.c. bolus once daily 28 days, 1, 5, 40 mg/kg/day): well tolerated at all doses with no effects on mortality or adverse findings; mixed cell infiltration at the subcutaneous dorsoscapular injection site ([1]; rats, 40 mg/kg/day group females, main study, considered within the expected response to the injection procedure): increase in incidence and severity of mixed cell infiltration; prostate/seminal vesicle weight normalized to body weight or brain weight vs control ([1]; rats, 40 mg/kg/day group males, recovery study, considered incidental, absolute weights not different): significantly higher; body weights and body weight gains [1, 5]: unaffected; food consumption [1, 5]: unaffected; clinical observations ([1]; rats, 1, 5, 40 mg/kg/day subq for 28 days, main and recovery study): no test article-related clinical observations; survival ([1]; rats, 1, 5 and 40 mg/kg/day s.c. for 28 days): All animals survived until the scheduled euthanasia; ophthalmic examinations ([1]; rats, all test article-treated groups): No ophthalmic lesions indicative of toxicity were observed; hematology, coagulation, clinical chemistry and urinalysis parameters ([1]; rats, main study, all dose levels): unaffected; macroscopic findings [1, 6]: no test article-related macroscopic findings; microscopic findings [1, 6]: no test article-related microscopic findings; organ weights [1, 6]: no test article-related organ weight changes; microscopic findings ([1]; rats, recovery study): No test article-related microscopic findings were noted; macroscopic findings [1, 7]: no test article-related macroscopic findings; organ weights [1, 7]: no test article-related organ weight changes; tolerability (mortality, adverse findings) ([2]; Beagle dogs, main and recovery studies, s.c. bolus once daily 28 days, 1, 5, 20 mg/kg/day): well tolerated at all doses with no effects on mortality or adverse findings; no-observed-adverse-effect-level (NOAEL) ([2]; Beagle dogs, s.c. once daily for 28 days): 20 mg/kg/day; body weights and body weight gains [2, 8]: unaffected; clinical observations [2, 8]: no test article-related clinical observations; electrocardiography [2, 8]: no test article-related clinical observations or effects; food consumption [2, 8]: unaffected; organ weights [2, 8]: no test article-related clinical observations or effects; survival ([2]; dogs, 1, 5 and 20 mg/kg/day s.c. for 28 days): All animals survived until the scheduled euthanasia; ophthalmic examinations ([2]; dogs, all test article-treated groups): No ophthalmic lesions indicative of toxicity were observed; hematology, coagulation, clinical chemistry and urinalysis parameters ([2]; dogs, main study): unaffected; macroscopic findings [2, 9]: No test article-related macroscopic findings were noted; microscopic findings [2, 9]: No test article-related microscopic findings were noted; macroscopic findings ([2]; dogs, recovery study, day 43): No test article-related macroscopic findings were noted; microscopic findings ([2]; dogs, recovery study, day 43): No test article-related microscopic findings were noted; organ weights ([2]; dogs, recovery study, day 43): no test article-related organ weight changes; subcutaneous injection sites with dark red subcutaneous foci ([2]; dogs, treated group animals, main study, lacked a dose response, considered an effect of subcutaneous injection): 5 of 96; clinical observations, heart rate, arterial blood pressure, pulse pressure, body temperature and ECG waveforms [3]: no effect; stability of dosing formulations ([4]; 24 h of room temperature storage): stable; stability of dosing formulations ([4]; 9 days of refrigerated storage): stable
